One assay has as its target human dOR (Homo sapiens (Human), UniProt P41143). In words: cell-based. The settings on record: dOR cAMP Agonist Assay EC50, CHO Tag-lite human dOR stable cell line; forskolin.
In the next assay the target is human mOR (Homo sapiens (Human), UniProt P35372). In words: cell-based.
Where [1] appears, read: CHO Tag-lite human mOR stable cell line, forskolin 4 μM and DAMGO at EC90, read-out: mOR cAMP Antagonist Assay IC50.

Like-named read-outs stand apart in the source and are kept apart here.

Sequence of human mOR (P35372 whole entry): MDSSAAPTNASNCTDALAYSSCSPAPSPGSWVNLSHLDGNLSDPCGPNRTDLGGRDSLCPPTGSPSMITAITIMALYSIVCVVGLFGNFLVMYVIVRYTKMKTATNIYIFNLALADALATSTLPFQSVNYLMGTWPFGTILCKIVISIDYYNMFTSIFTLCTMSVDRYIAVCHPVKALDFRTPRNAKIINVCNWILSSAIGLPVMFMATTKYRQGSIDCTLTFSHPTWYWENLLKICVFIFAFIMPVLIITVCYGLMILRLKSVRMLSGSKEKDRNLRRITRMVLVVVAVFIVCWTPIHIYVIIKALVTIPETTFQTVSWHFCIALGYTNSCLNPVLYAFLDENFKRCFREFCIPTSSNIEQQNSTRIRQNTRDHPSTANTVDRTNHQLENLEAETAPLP
Sequence of human dOR (P41143 whole entry): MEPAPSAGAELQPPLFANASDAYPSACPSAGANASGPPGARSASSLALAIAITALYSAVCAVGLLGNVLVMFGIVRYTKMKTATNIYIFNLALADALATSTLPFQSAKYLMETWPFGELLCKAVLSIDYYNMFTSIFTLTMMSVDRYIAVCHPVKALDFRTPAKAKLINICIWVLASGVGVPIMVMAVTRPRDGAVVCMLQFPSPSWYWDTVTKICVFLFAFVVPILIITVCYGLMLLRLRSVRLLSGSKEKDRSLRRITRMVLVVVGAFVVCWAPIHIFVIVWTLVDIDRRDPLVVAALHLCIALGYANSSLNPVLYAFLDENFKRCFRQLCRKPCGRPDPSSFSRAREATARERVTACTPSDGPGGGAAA

The term EC50 denotes the midpoint of the concentration-response curve. What is called IC50 is the concentration that inhibits the measured activity by half. As to `Cc1cc(C(N)=O)cc(C)c1C[C@@H](CNC(=O)C[C@H](CC(C)C)c1ccccc1)N(C)C` [Compound 9, 4-[(2S)-2-(dimethylamino)-3-[(3S)-5-methyl-3-phenylhexanamido]propyl]-3,5-dimethylbenzamide], the EC50 at human dOR is above 3000 nM. For the same compound, on human mOR, the half-inhibitory concentration (IC50) is below 300 nM.

As to `Cc1cc(C(N)=O)cc(C)c1C[C@@H](CNC(=O)C[C@H](c1ccccc1)C(C)(C)C)N(C)C` [Compound 13, 4-[(2S)-3-[(3S)-4,4-dimethyl-3-phenylpentanamido]-2-(dimethylamino)propyl]-3,5-dimethylbenzamide], the EC50 at human dOR is above 3000 nM. The IC50 at human mOR is below 300 nM. Taken in the same sequence, the figures for `CC(C)[C@@H](CC(=O)NC[C@H](Cc1ccc(C(N)=O)cc1Cl)N(C)C)c1ccccc1` [Compound 40, 3-chloro-4-((S)-2-(dimethylamino)-3-((R)-4-methyl-3-phenylpentanamido)propyl)benzamide] were below 300 nM and above 3000 nM. With `CC(C)[C@@H](CC(=O)NC[C@H](Cc1ccc(C(N)=O)cc1)N(C)C)c1ccccc1` [Compound 92, 4-((S)-2-(dimethylamino)-3-((R)-4-methyl-3-phenylpentanamido)propyl)benzamide], the EC50 on human dOR is below 300 nM. The IC50 at human mOR was below 300 nM.

`CN(C)[C@H](CNC(=O)C[C@@H](c1ccccc1)C(C)(C)C)Cc1ccc(C(N)=O)cc1` [Compound 93, 4-[(2S)-3-[(3R)-4,4-dimethyl-3-phenylpentanamido]-2-(dimethylamino)propyl]benzamide]: on human dOR, the EC50 was below 300 nM. In addition, the IC50 at human mOR was below 300 nM. Regarding `CC(C)[C@H](CC(=O)NC[C@H](Cc1ccc(C(N)=O)cc1)N(C)C)c1ccccc1` [Compound 94, 4-[(2S)-2-(dimethylamino)-3-[(3S)-4-methyl-3-phenylpentanamido]propyl]benzamide], the EC50 on human dOR was below 300 nM. The IC50 at human mOR is below 300 nM. As for `CN(C)[C@H](CNC(=O)C[C@@H](c1ccccc1)C(C)(C)C)Cc1ccc(C(N)=O)cc1` [Compound 95, 4-((S)-3-((R)-4,4-dimethyl-3-phenylpentanamido)-2-(dimethylamino)propyl)benzamide], at human dOR, the EC50 was above 3000 nM. For `CN(C)[C@H](CNC(=O)C[C@H](c1ccccc1)C(C)(C)C)Cc1ccc(C(=O)NCC(F)(F)F)c(F)c1` [Compound 101, 4-((S)-3-((S)-4,4-dimethyl-3-phenylpentanamido)-2-(dimethylamino)propyl)-2-fluoro-N-(2,2,2-trifluoroethyl)benzamide], the EC50 at human dOR is 300 to 3000 nM. In addition, the IC50 at human mOR (setting [1]) is below 300 nM. For `CNC(=O)c1cc(F)c(C[C@@H](CNC(=O)C[C@H](c2ccccc2)C(C)(C)C)N(C)C)cc1F` [Compound 104, 4-((S)-3-((S)-4,4-dimethyl-3-phenylpentanamido)-2-(dimethylamino)propyl)-2,5-difluoro-N-methylbenzamide], the EC50 on human dOR fell in the range of 300 to 3000 nM. The IC50 on human mOR was below 300 nM.

`CN(C)[C@H](CNC(=O)C[C@H](c1ccsc1)C1(C(F)(F)F)CC1)Cc1ccc(O)cc1` [Compound 294, (S)-N-((S)-2-(dimethylamino)-3-(4-hydroxyphenyl)propyl)-3-(thiophen-3-yl)-3-(1-(trifluoromethyl)cyclopropyl)propanamide]: the IC50 at human mOR was below 300 nM. On the same count and under the same terms, as for `Cc1ncc([C@@H](CC(=O)NC[C@H](Cc2ccc(O)cc2)N(C)C)C2(C(F)(F)F)CC2)s1` [Compound 295, (S)-N-((S)-2-(dimethylamino)-3-(4-hydroxyphenyl)propyl)-3-(2-methylthiazol-5-yl)-3-(1-(trifluoromethyl)cyclopropyl)propanamide], the figure is below 300 nM. Still for that read-out and setting: as for `CN(C)[C@H](CNC(=O)C[C@H](c1cncs1)C1(C(F)(F)F)CC1)Cc1ccc(O)cc1` [Compound 296, (S)-N-((S)-2-(dimethylamino)-3-(4-hydroxyphenyl)propyl)-3-(thiazol-5-yl)-3-(1-(trifluoromethyl)cyclopropyl)propanamide], the figure is below 300 nM; as for `CC(C)C[C@H](CC(=O)NC[C@H](Cc1ccc(O)cc1)N(C)C)c1cccnc1` [Compound 297, (R)-N-((S)-2-(dimethylamino)-3-(4-hydroxyphenyl)propyl)-5-methyl-3-(pyridin-3-yl)hexanamide], below 300 nM; as for `CN(C)[C@H](CNC(=O)C[C@H](CC1CC1)c1ccncc1)Cc1ccc(O)cc1` [Compound 298, (S)-4-cyclopropyl-N-((S)-2-(dimethylamino)-3-(4-hydroxyphenyl)propyl)-3-(pyridin-4-yl)butanamide], below 300 nM. The same measure, in the same setting: as for `Cc1cc([C@@H](CC(=O)NC[C@H](Cc2ccc(O)cc2)N(C)C)C2(C(F)(F)F)CC2)ccn1` [Compound 299, (R)-N-((S)-2-(dimethylamino)-3-(4-hydroxyphenyl)propyl)-3-(2-methylpyridin-4-yl)-3-(1-(trifluoromethyl)cyclopropyl) propanamide], the figure is below 300 nM; as for `Cc1cncc([C@@H](CC(=O)NC[C@H](Cc2ccc(O)cc2)N(C)C)C2(C(F)(F)F)CC2)c1` [Compound 300, (R)-N-((S)-2-(dimethylamino)-3-(4-hydroxyphenyl)propyl)-3-(5-methylpyridin-3-yl)-3-(1-(trifluoromethyl)cyclopropyl)propanamide], below 300 nM. As to `Cc1ccc([C@@H](CC(=O)NC[C@H](Cc2ccc(O)cc2)N(C)C)C2(C(F)(F)F)CC2)cn1` [Compound 302, (R)-N-((S)-2-(dimethylamino)-3-(4-hydroxyphenyl)propyl)-3-(6-methylpyridin-3-yl)-3-(1-(trifluoromethyl)cyclopropyl) propanamide], the IC50 on human mOR is below 300 nM.

On to `CN(C)[C@H](CNC(=O)C[C@H](c1cccnc1)C1(C)CC1)Cc1ccc(O)cc1` [Compound 303, (S)-N-((S)-2-(dimethylamino)-3-(4-hydroxyphenyl)propyl)-3-(1-methylcyclopropyl)-3-(pyridin-3-yl)propanamide], for which the IC50 at human mOR is below 300 nM.

As to `CC(C)[C@H](CC(=O)NC[C@H](Cc1ccc(O)cc1)N(C)C)c1cccnc1` [Compound 304, (S)-N-((S)-2-(dimethylamino)-3-(4-hydroxyphenyl)propyl)-4-methyl-3-(pyridin-3-yl)pentanamide], the IC50 at human mOR was below 300 nM. The same measure, in the same setting: as for `CN(C)[C@H](CNC(=O)C[C@H](c1cccnc1)C1(C(F)(F)F)CC1)Cc1ccc(O)cc1` [Compound 306, (R)-N-((S)-2-(dimethylamino)-3-(4-hydroxyphenyl)propyl)-3-(pyridin-3-yl)-3-(1-(trifluoromethyl)cyclopropyl)propanamide], the figure is below 300 nM.

As for `CN(C)[C@H](CNC(=O)C[C@@H](CC1CC1)c1cncnc1)Cc1ccc(O)cc1` [Compound 307, (R)-4-cyclopropyl-N-((S)-2-(dimethylamino)-3-(4-hydroxyphenyl)propyl)-3-(pyrimidin-5-yl)butanamide], the half-maximal inhibitory concentration (IC50) on human mOR is below 300 nM. Take `CN(C)[C@H](CNC(=O)C[C@H](c1cccnc1)C1CC1)Cc1ccc(O)cc1` [Compound 308, (S)-3-cyclopropyl-N-((S)-2-(dimethylamino)-3-(4-hydroxyphenyl)propyl)-3-(pyridin-3-yl)propanamide]: the IC50 at human mOR (setting [1]) is 300 to 3000 nM. In the case of `CN(C)[C@H](CNC(=O)CC(c1ccncc1)C1(C(F)(F)F)CC1)Cc1ccc(O)cc1` (stereo partly drawn) [Compound 309, N-((S)-2-(dimethylamino)-3-(4-hydroxyphenyl)propyl)-3-(pyridin-4-yl)-3-(1-(trifluoromethyl)cyclopropyl)propanamide], the IC50 on human mOR was below 300 nM. In the case of `CN(C)[C@H](CNC(=O)C[C@@H](CC1CC1)c1cccnc1)Cc1ccc(O)cc1` [Compound 310, (R)-4-cyclopropyl-N-((S)-2-(dimethylamino)-3-(4-hydroxyphenyl)propyl)-3-(pyridin-3-yl)butanamide], on human mOR, the IC50 was below 300 nM. On to `Cc1ncc([C@@H](CC(=O)NC[C@H](Cc2ccc(O)cc2)N(C)C)C2CC2)cn1` [Compound 311, (S)-3-cyclopropyl-N-((S)-2-(dimethylamino)-3-(4-hydroxyphenyl)propyl)-3-(2-methylpyrimidin-5-yl)propanamide], for which, at human mOR (setting [1]), the IC50 lay in the range of 300 to 3000 nM. For the compound `Cc1ncc([C@@H](CC(=O)NC[C@H](Cc2ccc(O)cc2)N(C)C)C2(C(F)(F)F)CC2)cn1` [Compound 312, (R)-N-((S)-2-(dimethylamino)-3-(4-hydroxyphenyl)propyl)-3-(2-methylpyrimidin-5-yl)-3-(1-(trifluoromethyl)cyclopropyl)propanamide], the IC50 on human mOR was below 300 nM. Same read-out and setting: as for `CN(C)[C@H](CNC(=O)CC(c1ncccn1)C1(C(F)(F)F)CC1)Cc1ccc(O)cc1` (stereo partly drawn) [Compound 313, N-((S)-2-(dimethylamino)-3-(4-hydroxyphenyl)propyl)-3-(pyrimidin-2-yl)-3-(1-(trifluoromethyl)cyclopropyl)propanamide], the figure is below 300 nM. The same measure, in the same setting: as for `CN(C)[C@H](CNC(=O)CC(c1ccc(C(F)(F)F)nc1)C1(C(F)(F)F)CC1)Cc1ccc(O)cc1` (stereo partly drawn) [Compound 314, N-((S)-2-(dimethylamino)-3-(4-hydroxyphenyl)propyl)-3-(1-(trifluoromethyl)cyclopropyl)-3-(6-(trifluoromethyl)pyridin-3-yl)propanamide], the figure is below 300 nM; as for `Cc1cc([C@@H](CC(=O)NC[C@H](Cc2ccc(O)cc2)N(C)C)C2(C(F)(F)F)CC2)cs1` [Compound 322, (S)-N-((S)-2-(dimethylamino)-3-(4-hydroxyphenyl)propyl)-3-(5-methylthiophen-3-yl)-3-(1-(trifluoromethyl)cyclopropyl)propanamide], below 300 nM. Take `Cc1cnc([C@@H](CC(=O)NC[C@H](Cc2ccc(-c3nnc[nH]3)cc2)N(C)C)C2(C(F)(F)F)CC2)s1` [Compound 325, (S)-N-((S)-3-(4-(4H-1,2,4-triazol-3-yl)phenyl)-2-(dimethylamino)propyl)-3-(5-methylthiazol-2-yl)-3-(1-(trifluoromethyl)cyclopropyl) propanamide]: the IC50 on human mOR (setting [1]) fell in the range of 300 to 3000 nM.

Values taken from patent US11634396B2 (priority 2021, dated 2023).
